Experimental data as given in PubChem BioAssay AID1745844 (Carcinogenic Potency Database (CPDB), 2022).
Values joined by “and” are separate entries in the source; they are usually repeats but may differ in a detail not shown here. Equal values may be shown once. Active and inactive are the calls of the source. How the calls were made is not given here.

Test system: rodent lifetime carcinogenesis bioassay, tumor incidence TD50
Test: chronic cancer bioassays in animals – CPDB, compiled studies (AID 1745844)

## O=[N+]([O-])c1ccc(NCCO)c(OCCO)c1
mouse, strain B6C3F1, females, in feed, site: any site (literature study), lesion: several types, types named in the paper, dosed 103 weeks, study length 104 weeks
  carcinogen call: negative (inactive)
mouse, strain B6C3F1, males, in feed, site: any site (literature study), lesion: several types, types named in the paper, dosed 103 weeks, study length 104 weeks
  carcinogen call: negative (inactive)
rat, strain Fischer 344, females, in feed, site: any site (literature study), lesion: several types, types named in the paper, dosed 103 weeks, study length 104 weeks
  carcinogen call: negative (inactive)
rat, strain Fischer 344, males, in feed, site: pituitary gland, lesion: pars distalis adenoma, dosed 103 weeks, study length 104 weeks
  TD50: 465 mg/kg/day

## CC(O)COC(C)(C)C (stereo unspecified)
mouse, strain B6C3F1, females, inhaled, site: any site (literature study), lesion: several types, types named in the paper, dosed 104 weeks, study length 104 weeks
  TD50: 8120 mg/kg/day
mouse, strain B6C3F1, females, inhaled, site: liver, lesion: hepatocellular adenoma + hepatoblastoma + hepatocellular carcinoma, dosed 104 weeks, study length 104 weeks
  TD50: 1780 mg/kg/day
mouse, strain B6C3F1, females, inhaled, site: liver, lesion: hepatocellular adenoma + hepatocellular carcinoma, dosed 104 weeks, study length 104 weeks
  TD50: 1780 mg/kg/day
mouse, strain B6C3F1, females, inhaled, site: liver, lesion: hepatocellular adenoma, dosed 104 weeks, study length 104 weeks
  TD50: 1780 mg/kg/day
mouse, strain B6C3F1, males, inhaled, site: any site (literature study), lesion: several types, types named in the paper, dosed 104 weeks, study length 104 weeks
  TD50: 7930 mg/kg/day
mouse, strain B6C3F1, males, inhaled, site: liver, lesion: hepatoblastoma, dosed 104 weeks, study length 104 weeks
  TD50: 9320 mg/kg/day
mouse, strain B6C3F1, males, inhaled, site: liver, lesion: hepatocellular adenoma + hepatoblastoma + hepatocellular carcinoma, dosed 104 weeks, study length 104 weeks
  TD50: 1980 mg/kg/day
mouse, strain B6C3F1, males, inhaled, site: liver, lesion: hepatocellular adenoma + hepatocellular carcinoma, dosed 104 weeks, study length 104 weeks
  TD50: 1980 mg/kg/day
mouse, strain B6C3F1, males, inhaled, site: liver, lesion: hepatocellular adenoma, dosed 104 weeks, study length 104 weeks
  TD50: 1970 mg/kg/day
rat, strain Fischer 344, females, inhaled, site: any site (literature study), lesion: several types, types named in the paper, dosed 104 weeks, study length 104 weeks
  carcinogen call: negative (inactive)
rat, strain Fischer 344, females, inhaled, site: liver, lesion: hepatocellular adenoma + hepatoblastoma + hepatocellular carcinoma, dosed 104 weeks, study length 104 weeks
  TD50: 10500 mg/kg/day
rat, strain Fischer 344, males, inhaled, site: any site (literature study), lesion: several types, types named in the paper, dosed 104 weeks, study length 104 weeks
  TD50: 683 mg/kg/day
rat, strain Fischer 344, males, inhaled, site: kidney, lesion: tubule adenoma + tubule carcinoma, dosed 104 weeks, study length 104 weeks
  TD50: 2280 mg/kg/day and 2650 mg/kg/day
rat, strain Fischer 344, males, inhaled, site: kidney, lesion: tubule adenoma, dosed 104 weeks, study length 104 weeks
  TD50: 4480 mg/kg/day and 3800 mg/kg/day
rat, strain Fischer 344, males, inhaled, site: liver, lesion: hepatocellular adenoma + hepatoblastoma + hepatocellular carcinoma, dosed 104 weeks, study length 104 weeks
  TD50: 1450 mg/kg/day
rat, strain Fischer 344, males, inhaled, site: liver, lesion: hepatocellular adenoma, dosed 104 weeks, study length 104 weeks
  TD50: 1450 mg/kg/day
rat, strain Fischer 344, males, inhaled, site: skin, lesion: basal-cell adenoma + basal-cell carcinoma, dosed 104 weeks, study length 104 weeks
  TD50: 1510 mg/kg/day
rat, strain Fischer 344, males, inhaled, site: skin, lesion: basal-cell adenoma, dosed 104 weeks, study length 104 weeks
  TD50: 2070 mg/kg/day

## Cc1cc(=O)[nH]c(=S)[nH]1
hamster, strain Not specified, females, in drinking water, site: thyroid gland, lesion: several types, types named in the paper, dosed 52 weeks, study length 52 weeks
  TD50: 53.4 mg/kg/day
mouse, strain C3H/FIB, both sexes, in feed, site: liver, lesion: hepatoma, dosed 51 weeks, study length 78 weeks
  TD50: 1370 mg/kg/day

## COc1ccc(N)c(C)c1
mouse, strain B6C3F1, females, by gavage, site: any site (literature study), lesion: several types, types named in the paper, dosed 53 weeks, study length 93 weeks
  TD50: 69.2 mg/kg/day
mouse, strain B6C3F1, females, by gavage, site: liver, lesion: hepatocellular adenoma + hepatocellular carcinoma + neoplastic nodule, dosed 53 weeks, study length 93 weeks
  TD50: 206 mg/kg/day
mouse, strain B6C3F1, females, by gavage, site: liver, lesion: hepatocellular adenoma + hepatocellular carcinoma, dosed 53 weeks, study length 93 weeks
  TD50: 206 mg/kg/day (inactive)
mouse, strain B6C3F1, females, by gavage, site: lung, lesion: alveolar/bronchiolar adenoma + alveolar/bronchiolar carcinoma, dosed 53 weeks, study length 93 weeks
  TD50: 250 mg/kg/day
mouse, strain B6C3F1, males, by gavage, site: any site (literature study), lesion: several types, types named in the paper, dosed 53 weeks, study length 93 weeks
  TD50: 72.2 mg/kg/day
rat, strain Fischer 344, females, by gavage, site: any site (literature study), lesion: several types, types named in the paper, dosed 77 weeks, study length 109 weeks
  TD50: 51.5 mg/kg/day
rat, strain Fischer 344, females, by gavage, site: liver, lesion: hepatocellular adenoma + hepatocellular carcinoma + neoplastic nodule, dosed 77 weeks, study length 109 weeks
  TD50: 1100 mg/kg/day
rat, strain Fischer 344, females, by gavage, site: mammary gland, lesion: fibroadenoma, dosed 77 weeks, study length 109 weeks
  TD50: 52.7 mg/kg/day
rat, strain Fischer 344, females, by gavage, site: urinary bladder, lesion: transitional-cell carcinoma, dosed 77 weeks, study length 109 weeks
  TD50: 769 mg/kg/day
rat, strain Fischer 344, males, by gavage, site: any site (literature study), lesion: several types, types named in the paper, dosed 77 weeks, study length 109 weeks
  TD50: 368 mg/kg/day
rat, strain Fischer 344, males, by gavage, site: liver, lesion: hepatocellular adenoma + hepatocellular carcinoma + neoplastic nodule, dosed 77 weeks, study length 109 weeks
  TD50: 506 mg/kg/day
rat, strain Fischer 344, males, by gavage, site: urinary bladder, lesion: transitional-cell carcinoma, dosed 77 weeks, study length 109 weeks
  TD50: 470 mg/kg/day
